Assay results: patent US20100204265A1 (priority 2009, published 2010)

Test system: ET (Huh-lucubineo-ET) cell line harboring I389luc-ubi-neo/NS3-3′/ET HCV replicon
Experiment: Replicon assay (HCV replicon, luciferase readout)
Type: cell-based
Conditions: Hepatitis C virus
Summary of the method: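 Compounds at 10-point 2-fold dilutions (overall 0.1 nM to […], 0.5% DMSO) were applied to ET cells carrying a luciferase-neo HCV replicon, seeded a day earlier. After 48-72 hours, luciferase-based % inhibition was fitted with a Hill equation for EC50, and parallel WST-1 readings gave TC50.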

Going from `O=C(c1nc2c(C(F)(F)F)cc(-c3ccoc3)cn2c1Cl)N1CCC(Nc2ncccn2)C1` (centres unmarked) [Compound 183, (3-Chloro-6-furan-3-yl-8-trifluoromethyl-imidazo [1,2-a]pyridin-2-yl)-[3-(pyrimidin-2-ylamino)-pyrrolidin-1-yl]-methanone] to `O=C(c1nc2c(C(F)(F)F)cc(-c3ccoc3)cn2c1Cl)N1CCC(n2ccnc2)CC1` [Compound 197, (3-Chloro-6-furan-3-yl-8-trifluoromethyl-imidazo[1,2-a]pyridin-2-yl)-(4-imidazol-1-yl-piperidin-1-yl)-methanone], the EC50 falls from 55 µM to 3.5 µM (16-fold).

`O=C(Cc1cn2cc(-c3ccoc3)cc(C(F)(F)F)c2n1)Nc1nccs1` [Compound 184, 2-(6-Furan-3-yl-8-trifluoromethyl-imidazo[1,2-a]pyridin-2-yl)-N-thiazol-2-yl-acetamide] and `O=C(Cc1cn2cc(-c3ccoc3)cc(C(F)(F)F)c2n1)NS(=O)(=O)c1cccs1` [Compound 189, Thiophene-2-sulfonic acid [2-(6-furan-3-yl-8-trifluoromethyl-imidazo[1,2-a]pyridin-2-yl)-acetyl]-amide] cannot be ordered by EC50: > 50 µM for the first, > 50 µM for the second.

First: O=C(Cc1cn2cc(-c3ccoc3)cc(C(F)(F)F)c2n1)NCc1ccccc1 [Compound 185, N-Benzyl-2-(6-furan-3-yl-8-trifluoromethyl-imidazo[1,2-a]pyridin-2-yl)-acetamide]
Second: O=C(Cc1cn2cc(-c3ccoc3)cc(C(F)(F)F)c2n1)NCCc1ccccc1 [Compound 192, 2-(6-Furan-3-yl-8-trifluoromethyl-imidazo[1,2-a]pyridin-2-yl)-N-phenethyl-acetamide]
The EC50 of the first is lower: 4.8 µM for the first, > 50 µM for the second. The first is the more potent here.

Compared with `O=C(Cc1cn2cc(-c3ccoc3)cc(C(F)(F)F)c2n1)N1CC=C(c2nccs2)C1` [Compound 186, 2-(6-Furan-3-yl-8-trifluoromethyl-imidazo[1,2-a]pyridin-2-yl)-1-(3-thiazol-2-yl-2,5-dihydro-pyrrol-1-yl)-ethanone], `O=C(Cc1cn2cc(-c3ccoc3)cc(C(F)(F)F)c2n1)N1CC=C(c2nccs2)CC1` [Compound 191, 2-(6-Furan-3-yl-8-trifluoromethyl-imidazo[1,2-a]pyridin-2-yl)-1-(4-thiazol-2-yl-3,6-dihydro-2H-pyridin-1-yl)-ethanone] is higher in EC50: 5.98 µM for the first, > 50 µM for the second.

First: O=C(Cc1cn2cc(-c3ccoc3)cc(C(F)(F)F)c2n1)N1CCC(c2cccs2)C1 (centres unmarked) [Compound 187, 2-(6-Furan-3-yl-8-trifluoromethyl-imidazo[1,2-a]pyridin-2-yl)-1-(3-thiophen-2-yl-pyrrolidin-1-yl)-ethanone]
Second: O=C(Cc1cn2cc(-c3ccoc3)cc(C(F)(F)F)c2n1)N1CCCC1c1cccs1 (centres unmarked) [Compound 188, 2-(6-Furan-3-yl-8-trifluoromethyl-imidazo[1,2-a]pyridin-2-yl)-1-(2-thiophen-2-yl-pyrrolidin-1-yl)-ethanone]
The EC50 of the first is lower: 2 µM for the first, > 50 µM for the second. The first is the more potent here.

`CS(=O)(=O)NC1CN(C(=O)Cc2cn3cc(-c4ccoc4)cc(C(F)(F)F)c3n2)C1` [Compound 190, N-{1-[2-(6-Furan-3-yl-8-trifluoromethyl-imidazo[1,2-a]pyridin-2-yl)-acetyl]-azetidin-3-yl}-methanesulfonamide] and `CC(C)(C)C#CC1=CCN(C(=O)c2nc3c(C(F)(F)F)cc(-c4ccoc4)cn3c2Cl)CC1` [Compound 199, (3-Chloro-6-furan-3-yl-8-trifluoromethyl-imidazo[1,2-a]pyridin-2-yl)-[4-(3,3-dimethyl-but-1-ynyl)-3,6-dihydro-2H-pyridin-1-yl]-methanone] cannot be ordered by EC50: > 50 µM for the first, > 50 µM for the second.

Compared with `O=C(NC1CCC(c2ccccc2)CC1)c1nc2c(C(F)(F)F)cc(-c3ccoc3)cn2c1Cl` (centres unmarked) [Compound 193, 3-Chloro-6-furan-3-yl-8-trifluoromethyl-imidazo[1,2-a]pyridine-2-carboxylic acid (4-phenyl-cyclohexyl)-amide], `O=C(c1ccccc1)C1CCN(C(=O)c2nc3c(C(F)(F)F)cc(-c4ccoc4)cn3c2Cl)CC1` [Compound 194, (4-Benzoyl-piperidin-1-yl)-(3-chloro-6-furan-3-yl-8-trifluoromethyl-imidazo[1,2-a]pyridin-2-yl)-methanone] is 2.8-fold lower in EC50: 2.5 µM for the first, 0.889 µM for the second. The second is the more potent here.

`O=C(c1nc2c(C(F)(F)F)cc(-c3ccoc3)cn2c1Cl)N1CCC(N2CCCC2)CC1` [Compound 195, (3-Chloro-6-furan-3-yl-8-trifluoromethyl-imidazo[1,2-a]pyridin-2-yl)-(4-pyrrolidin-1-yl-piperidin-1-yl)-methanone] and `O=C(c1nc2c(C(F)(F)F)cc(-c3ccoc3)cn2c1Cl)N1CC=C(C#CC2CCCC2)CC1` [Compound 200, (3-Chloro-6-furan-3-yl-8-trifluoromethyl-imidazo[1,2-a]pyridin-2-yl)-(4-cyclopentylethynyl-3,6-dihydro-2H-pyridin-1-yl)-methanone] cannot be ordered by EC50: > 50 µM for the first, > 50 µM for the second.

`O=C(c1nc2c(C(F)(F)F)cc(-c3ccoc3)cn2c1Cl)N1CC=C(C#Cc2cccnc2)CC1` [Compound 198, (3-Chloro-6-furan-3-yl-8-trifluoromethyl-imidazo[1,2-a]pyridin-2-yl)-(4-pyridin-3-ylethynyl-3,6-dihydro-2H-pyridin-1-yl)-methanone] and `O=C(c1nc2c(C(F)(F)F)cc(-c3ccoc3)cn2c1Cl)N1CC=C(c2ncccc2O)CC1` [Compound 201, (3-Chloro-6-furan-3-yl-8-trifluoromethyl-imidazo[1,2-a]pyridin-2-yl)-(3-hydroxy-3′,6′-dihydro-2′H-[2,4′]bipyridinyl-1′-yl)-methanone] are within 1.5-fold of each other in EC50: 14.6 µM for the first, 15.3 µM for the second.

First: O=C(c1nc2c(C(F)(F)F)cc(-c3ccoc3)cn2c1Cl)N1CC=C(c2ncccc2Cl)CC1 [Compound 202, (3-Chloro-3′,6′-dihydro-2′H-[2,4′]bipyridinyl-1′-yl)-(3-chloro-6-furan-3-yl-8-trifluoromethyl-imidazo[1,2-a]pyridin-2-yl)-methanone]
Second: O=C(c1nc2c(C(F)(F)F)cc(-c3ccoc3)cn2c1Cl)N1CC=C(c2ncccc2C(F)(F)F)CC1 [Compound 205, (3-Chloro-6-furan-3-yl-8-trifluoromethyl-imidazo[1,2-a]pyridin-2-yl)-(3-trifluoromethyl-3′,6′-dihydro-2′H-[2,4′]bipyridinyl-1′-yl)-methanone]
The EC50 of the first is 55-fold lower: 0.329 µM for the first, 18 µM for the second.

Compared with `O=C(c1nc2c(C(F)(F)F)cc(-c3ccoc3)cn2c1Cl)N1CC=C(c2cncc(F)c2)CC1` [Compound 203, (3-Chloro-6-furan-3-yl-8-trifluoromethyl-imidazo[1,2-a]pyridin-2-yl)-(5-fluoro-3′,6′-dihydro-2′H-[3,4′]bipyridinyl-1′-yl)-methanone], `O=C(c1nc2c(C(F)(F)F)cc(-c3ccoc3)cn2c1Cl)N1CC=C(c2cccc(F)n2)CC1` [Compound 204, (3-Chloro-6-furan-3-yl-8-trifluoromethyl-imidazo[1,2-a]pyridin-2-yl)-(6-fluoro-3′,6′-dihydro-2′H-[2,4′]bipyridinyl-1′-yl)-methanone] is 3.8-fold higher in EC50: 0.975 µM for the first, 3.71 µM for the second.

In the case of `Cc1ccnc(C2=CCN(C(=O)c3nc4c(C(F)(F)F)cc(-c5ccoc5)cn4c3Cl)CC2)c1F` [Compound 206, (3-Chloro-6-furan-3-yl-8-trifluoromethyl-imidazo[1,2-a]pyridin-2-yl)-(3-fluoro-4-methyl-3′,6′-dihydro-2′H-[2,4′]bipyridinyl-1′-yl)-methanone], the EC50 is reported as 5.95 µM.
